Experiments:
[1] = In-vitro stability in different pH buffers (aldehyde peak absorbance at 349 nm); format: physicochemical; conditions: for Stability (absorbance of aldehyde peak at 349 nm): 1 mM, 37 °C
Method: The stability of Pro-7 and the control TD-7 in different pH buffers (PBS buffer at pH 7.4, KCl·HCl buffer at pH 2.0, and Tris buffer at pH 8.0) was evaluated over time as previously reported. The ionic strength of all buffers was kept constant at 150 mM. A 200 mM stock solution of each compound was prepared using anhydrous DMSO. 1 mM solutions of each of the test compounds TD-7 and Pro-7 were prepared in duplicate for each of the three different pH buffers. […]
An in-vitro time-dependent (1–96 h) stability study of Pro-7 was conducted to inform the formulation of the prodrug. The study was conducted at three different pHs: 2.0, 7.4 and 8.0, which mimic stomach, blood and intestinal pH conditions, respectively. The presence of TD-7 or the rate of appearance of TD-7 upon dissociation of Pro-7 was monitored at 349 nm spectrophotometrically.

[2] = target: T1, Hb in human normal whole blood (Homo sapiens, UniProt P69905); assay: In-vitro time-dependent Hb modification (Hb adduct formation), cation-exchange HPLC; format: cell-based; conditions: 2 mM, normal whole blood 30% hematocrit
T1 construct: normal whole blood (AA) was collected from adult donors; from tissue; host or cells: normal (AA) human whole blood from adult donors, 30% hematocrit
T1 sequence (P69905 2-142 limits assumed): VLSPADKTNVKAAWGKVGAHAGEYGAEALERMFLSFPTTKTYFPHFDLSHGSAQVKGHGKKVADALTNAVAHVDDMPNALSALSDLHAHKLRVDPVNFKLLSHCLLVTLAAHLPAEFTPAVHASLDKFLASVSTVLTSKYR
T1 sequence (P68871 2-147 partner limits assumed): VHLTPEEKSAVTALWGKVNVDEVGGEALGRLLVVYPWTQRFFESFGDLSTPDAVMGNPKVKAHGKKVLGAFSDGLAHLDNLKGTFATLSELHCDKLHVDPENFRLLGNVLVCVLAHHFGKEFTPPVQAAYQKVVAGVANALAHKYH
Method: Pro-7 and the control TD-7 were used to conduct time-dependent Hb modification (Hb adduct formation) studies using normal whole blood as previously reported. A 200 mM stock solution of each compound was made with DMSO. In a 96-well 1.2 mL polypropylene deep-well plate (Thermo Scientific, Hampshire, UK), 2.0 mM concentration of each compound was added to 600 μL of whole blood (30% hematocrit), which was then incubated at 37 °C for 24 h with shaking (at 140 rpm). A control sample was supplemented only with an equivalent volume of DMSO. At different time points (0–24 h), 50 μL aliquots of this mixture were withdrawn from each well using a multichannel pipette and added to respective tubes containing 50 μL of sodium cyanoborohydride (NaBH3CN) and sodium borohydride (NaBH4) mixture (1:1 v/v 50 mM stock) to terminate the Schiff-base reaction, fix the Schiff-base Hb adducts and reduce the free reactive aldehyde. After mixing, the tubes were stored immediately at −80 °C until ready for analysis using cation-exchange HPLC (Hitachi D-7000 Series, Hitachi Instruments, Inc. San Jose, CA, USA) for Hb-compound adduct formation. The observed Hb adducts in %Hb modification were plotted as a function of time (h).
(§1) Human normal whole blood was used to assess the degree of Hb modification and Hb oxygen affinity (P50 shift), while sickle blood was used to investigate RBC sickling inhibition. Pro-7 and the positive control TD-7 were incubated with normal whole blood suspensions. […] For the sickling inhibition study, Pro-7 and the positive control TD-7 were incubated with SS blood suspensions under hypoxic conditions (2.5% O2/97.5% N2), and aliquot blood samples were drawn at three time points (1, 3 and 6 h) and used for assessing RBC morphology. The results summarized in Table 1 and Figure 4A–C show time-dependent effects for all three pharmacodynamic activities. […] Even at the end of the 24-h experiment, Pro-7 activity was still increasing.

[3] = target: T1, Hb in human normal whole blood; assay: In-vitro time-dependent oxygen equilibrium study (P50 shift); format: cell-based; conditions: 2 mM, normal whole blood 30% hematocrit
Method: An oxygen equilibrium curve study was conducted in a time-dependent manner to determine the effect and duration of Pro-7 on Hb affinity for oxygen (P50 shift) following standard procedure. Pro-7, along with the controls TD-7 and DMSO were used for the studies with normal whole blood sample (30% hematocrit). Each compound was incubated with the blood at a final concentration of 2 mM, and aliquot samples were taken at 1, 3, 6, 12 and 24 h and further incubated in IL 237 tonometer (Instrumentation Laboratories, Inc., Lexington, MA, USA) for 10 min at 37 °C, and allowed to equilibrate at oxygen tensions 6, 20, and 40 mmHg. The samples were then aspirated into a Radiometer ABL 800 Automated Blood Gas Analyzer (Copenhagen, Denmark ) to determine the pH, partial pressure of CO2 (pCO2), partial pressure of oxygen (pO2), and Hb oxygen saturation values (SO2). The measured values of pO2 (mmHg) and SO2 at each pO2 value were then subjected to a non-linear regression analysis using the program Scientist (Micromath, Salt Lake City, UT, USA) to estimate P50 as a measure of Hb oxygen affinity as previously reported.
as §1

[4] = tested on: SS cells (homozygous sickle cell blood); assay: In-vitro time-dependent RBC sickling inhibition under hypoxia; format: cell-based, human; conditions: 2 mM, SS cells 20% hematocrit, hypoxia (4% oxygen/96% nitrogen)
Method: Red blood cell sickling inhibition studies with Pro-7 and the control TD-7 was conducted using previously reported procedure. Blood suspensions from subjects with homozygous SCD (hematocrit 20%) were incubated under air in the absence or presence of test compounds at 37 °C for 1 h to ensure that binding has attained equilibrium. […] Aliquot samples were fixed with 2% glutaraldehyde solution without exposure to air, and then subjected to microscopic morphological analysis.
Human normal whole blood was used to assess the degree of Hb modification and Hb oxygen affinity (P50 shift), while sickle blood was used to investigate RBC sickling inhibition. […] The results summarized in Table 1 and Figure 4A–C show time-dependent effects for all three pharmacodynamic activities. […] Even at the end of the 24-h experiment, Pro-7 activity was still increasing.

## 1-(2-(3-((6-(hydroxymethyl)pyridin-2-yl)methoxy)-5 methoxyphenyl)thiazolidin-4-yl)propan-1-one [Pro-7]
[1]; pH 2.0
  degradation to release TD-7 (in words): very fast degradation
  time for formation of TD-7 from Pro-7 to be almost completed: ≤ 1 h
[1]; pH 2.0, 0 hr
  Stability (absorbance of aldehyde peak at 349 nm): 1.22 ± 0.4
[1]; pH 2.0, 1 hr
  Stability (absorbance of aldehyde peak at 349 nm): 3.16 ± 0.2
[1]; pH 2.0, 2 hr
  Stability (absorbance of aldehyde peak at 349 nm): 3.17 ± 0.09
[1]; pH 2.0, 3 hr
  Stability (absorbance of aldehyde peak at 349 nm): 3.36 ± 0.03
[1]; pH 2.0, 6 hr
  Stability (absorbance of aldehyde peak at 349 nm): 3.27 ± 0.02
[1]; pH 2.0, 24 hr
  Stability (absorbance of aldehyde peak at 349 nm): 3.05 ± 0.00
[1]; pH 7.4, 0 hr
  Stability (absorbance of aldehyde peak at 349 nm): 0.14 ± 0.01
[1]; pH 7.4, 1 hr
  Stability (absorbance of aldehyde peak at 349 nm): 0.16 ± 0.00
[1]; pH 7.4, 2 hr
  Stability (absorbance of aldehyde peak at 349 nm): 0.17 ± 0.00
[1]; pH 7.4, 3 hr
  Stability (absorbance of aldehyde peak at 349 nm): 0.09 ± 0.09
[1]; pH 7.4, 6 hr
  Stability (absorbance of aldehyde peak at 349 nm): 0.22 ± 0.00
[1]; pH 7.4, 24 hr
  Stability (absorbance of aldehyde peak at 349 nm): 0.49 ± 0.00
[1]; pH 7.4, 28 hr
  Stability (absorbance of aldehyde peak at 349 nm): 0.55 ± 0.00
[1]; pH 7.4, 48 hr
  Stability (absorbance of aldehyde peak at 349 nm): 0.98 ± 0.02
[1]; pH 7.4, 56 hr
  Stability (absorbance of aldehyde peak at 349 nm): 1.10 ± 0.03
[1]; pH 7.4, 72 hr
  Stability (absorbance of aldehyde peak at 349 nm): 1.77 ± 0.07
[1]; pH 7.4, 96 hr
  Stability (absorbance of aldehyde peak at 349 nm): 2.59 ± 0.03
[1]; pH 8.0, 0 hr
  Stability (absorbance of aldehyde peak at 349 nm): 0.14 ± 0.00
[1]; pH 8.0, 1 hr
  Stability (absorbance of aldehyde peak at 349 nm): 0.12 ± 0.00
[1]; pH 8.0, 2 hr
  Stability (absorbance of aldehyde peak at 349 nm): 0.15 ± 0.00
[1]; pH 8.0, 3 hr
  Stability (absorbance of aldehyde peak at 349 nm): 0.17 ± 0.00
[1]; pH 8.0, 6 hr
  Stability (absorbance of aldehyde peak at 349 nm): 0.24 ± 0.01
[1]; pH 8.0, 24 hr
  Stability (absorbance of aldehyde peak at 349 nm): 0.64 ± 0.16
[1]; pH 8.0, 28 hr
  Stability (absorbance of aldehyde peak at 349 nm): 1.00 ± 0.05
[1]; pH 8.0, 48 hr
  Stability (absorbance of aldehyde peak at 349 nm): 1.33 ± 0.32
[1]; pH 8.0, 72 hr
  Stability (absorbance of aldehyde peak at 349 nm): 1.89 ± 0.04
[1]; pH 8.0, 96 hr
  Stability (absorbance of aldehyde peak at 349 nm): 1.86 ± 0.01
[1]; pHs 7.4 and 8.0
  degradation to release TD-7 (in words): slow degradation
  time for TD-7 to be detected in a significant amount: ~ 6 h
  time to full dissociation into TD-7: approximately four days
[2]; 0 h
  %Hb Modification (Hb Adduct): 0.00 ± 0.00%
[2]; 1 h
  %Hb Modification (Hb Adduct): 7.10 ± 4.40%
[2]; 2 h
  %Hb Modification (Hb Adduct): 14.30 ± 6.80%
[2]; 4 h
  %Hb Modification (Hb Adduct): 17.50 ± 7.10%
[2]; 8 h
  %Hb Modification (Hb Adduct): 29.70 ± 10.9%
[2]; 12 h
  %Hb Modification (Hb Adduct): 41.20 ± 15.8%
[2]; 24 h
  %Hb Modification (Hb Adduct): 54.80 ± 21.8%
[3]; 1 h
  %Hb O2 Affinity (P50 Shift): 6.48 ± 1.54%
[3]; 3 h
  %Hb O2 Affinity (P50 Shift): 13.57 ± 5.53%
[3]; 6 h
  %Hb O2 Affinity (P50 Shift): 21.64 ± 10.93%
[3]; 12 h
  %Hb O2 Affinity (P50 Shift): 41.04 ± 10.93%
[3]; 24 h
  %Hb O2 Affinity (P50 Shift): 43.87 ± 3.22%
[4]; 1 h
  %Sickling Inhibition: 12.53%
[4]; 3 h
  %Sickling Inhibition: 40.76%
[4]; 6 h
  %Sickling Inhibition: 52.04%

From paper PMC10675597, “Design, Synthesis, and Antisickling Investigation of a Thiazolidine Prodrug of TD-7 That Prolongs the Duration of Action of Antisickling Aromatic Aldehyde” (Pharmaceutics, 2023)
